Data taken from patent publication US5536723A, “S-nitroso derivatives of hydrazinoacetic acids, 1-[(acylthio and (mercapto)-1-oxoalkyl]-1,2,34-Tetrahydroquinoline-2-carboxylic acids and alanyl prolines and isoquinolines” (Brigham & Women's Hospital, priority 1994, dated 1996).
Entries after “also recorded” stand apart in the source; their conditions may differ. Peptide text beside a SMILES is read from it.

Assays:
bovine femoral artery = assay: relaxation of isolated bovine femoral artery rings contracted with norepinephrine
Protocol: FIG. 2 depicts a graph showing the effect of S-nitrosocaptopril on the contraction of bovine femoral arteries to norepinephrine.
(§1) Blood Vessel Preparation. Bovine coronary or femoral arteries were obtained from an abattoir immediately after sacrifice of two- to four-week-old calves. Immediately after removal, the vessel was placed in ice-cold physiologic salt solution (PSS) containing 118.3 mM NaCl, 4.7 mM KCl, 2.5 mM CaCl2, 1.2 mM MgSO4, 1.2 mM KH2 PO4, 25.0 mM NaHCO3, 11.1 mM glucose, and 0.026 mM calcium disodium (ethylenedinitrilo)-tetraacetate. The vessels were then cleaned of adventitial tissue and cut into rings of approximately 5 mm lengths. When called for by the protocol, endothelium was removed from a ring by gently rubbing the luminal surface with a watchmaker's forceps. Vascular rings with intact endothelium were then suspended in organ chambers containing 25 ml of PSS at 37° aerated with 95% O2 -5% CO2. The rings were connected to force transducers (Grass FT03C, Quincy, Mass.) and changes in isometric force recorded continuously (Grass Polygraph Model 79B) over a period of 90 minutes. The optimal length-tension relationship was determined for each ring by observing the response to 10^-6 M norepinephrine after increments in tension of 0.5 gm. The functional integrity of the endothelium was assessed by contracting the vessel with 10^-6 M norepinephrine and then observing the response to 3×10^-7 M acetylcholine chloride.
Vascular ring segments with intact endothelium were […] contracted with a concentration of norepinephrine inducing a half-maximal response. After a stable contraction had been achieved, the tissue was exposed to increasing concentrations of S-nitrosocaptopril in cumulative half-log increments. […] The apparent IC50 is approximately 1 μM.

[1] = system: bovine femoral artery, contraction to angiotensin I; assay: contraction of the bovine femoral artery to angiotensin I
Protocol: The data are expressed as a percentage of the maximal response to norepinephrine (10^-6 M) and are shown as mean ±SEM in each group (n=7).
as §1

[2] = arterial pressure in the anesthetized rabbit; format: in vivo; conditions: 1 mM solution infused in an ear vein, 0.02 to 2.2 ml/min
Protocol: A 1 mM solution of S-nitrosocaptopril was infused in an ear vein of the rabbit at rates from 0.02 to 2.2 ml/min and the phasic and mean arterial pressure recorded in the femoral artery.

[3] = system: bovine femoral artery, response to bradykinin; assay: response of the bovine femoral artery to bradykinin
Protocol: as §1
In the bovine femoral artery contracted with a concentration of norepinephrine inducing a half-maximal response, bradykinin induced a biphasic response.

platelets = assay: platelet aggregation in PRP induced by ADP; format: cell-based, human; conditions: 11 μM ADP
Protocol: FIG. 7 depicts a graph showing the effect of S-nitrosocaptopril on platelet aggregation. Platelets in PRP were incubated with S-nitrosocaptopril over a range of concentrations for three minutes, after which ADP was added to a final concentration of 11 uM. The maximal rate of aggregation was measured and plotted as a percentage of that observed in the absence of S-nitrosocaptopril. Each point represents the mean ±SEM of five experiments each performed in duplicate.
Platelets. Volunteers who had not ingested acetylsalicylic acid for at least ten days provided venous blood within one hour of use. […] Platelet counts were determined using a Coulter counter (Model ZM; Coulter Electronics, Hialeah, Fla.) and adjusted with platelet-poor plasma (PPP) to 1.5×10^8 platelets/ml prior to use.
Platelet Aggregation. Platelet aggregation was monitored using a standard nephelometric technique (Born and Cross, J. Physiol (London) 168:178-195 (1963)) in which PRP was incubated at 37° with a final concentration of 11 μM ADP and stirred at 900 rpm in a Payton dual channel aggregometer (Payton Associates, Inc., Buffalo, N.Y.). Aggregation was quantitated by measuring either the maximal rate of change of light transmittance or the extent of change of light transmittance. […]

[4] = system: guanylate cyclase in arterial smooth muscle; conditions: Horowitz 1983; cited from earlier work
platelet aggregation = conditions: Loscalzo 1985; cited from earlier work
[5] = system: soluble guanylate cyclase; conditions: Ignarro 1980; cited from earlier work
bovine coronary artery = assay: relaxation of isolated bovine coronary artery rings contracted with potassium chloride; conditions: methylene blue 10^-5 M; FIG. 4
Source text: FIG. 5 depicts a graph showing the relaxation to sodium nitroprusside in the bovine coronary artery in the presence (o; n=7) or absence (; n:12) of a subthreshhold dose of S-nitrosocaptopril. The data are expressed as a percentage of the initial tension generated by potassium chloride (4×10^-2 M; coronary arteries) and are shown as mean ±SEM in each group.
as §1
Thus, to study vasodilating agents in this tissue the vessels were first contracted with potassium chloride (40 mM). Relaxations are expressed as a percent of the concentration to 40 mM potassium chloride.
Relaxations to S-nitrosocaptopril were inhibited by the antagonist of soluble guanylate cyclase, methylene blue (FIG. 4). Sodium nitroprusside induced dose-dependent relaxations of contractions to potassium chloride. The relaxation to sodium nitroprusside was inhibited by subthreshold doses of S-nitrosocaptopril (FIG. 5).

Structure (SMILES): C[C@H](CS)C(=O)N1CCCC1C(=O)O (stereo in doubt) [captopril, D-3-mercapto-2-methylpropanoyl-L-proline]
- relaxation response (in words) (bovine femoral artery; norepinephrine-contracted, FIG. 2): no relaxation response
- inhibition of contractions to angiotensin I, S-nitrosocaptopril versus captopril (in words) [1]: equally inhibited contractions to angiotensin I
- effect on blood pressure (in words) [2]: no effect on blood pressure
- effect on the response to bradykinin (in words) ([3]; 10^-6 M): Neither response to bradykinin was affected
- inhibitory effect on platelet aggregation (in words) (platelets): no inhibitory effect

Structure (SMILES): O=C1O[C@H]([C@@H](O)CO)C(O)=C1O [Ascorbate]
- activation of guanylate cyclase in arterial smooth muscle (in words) [4]: totally ineffective

Structure (SMILES): O=N[O-].[Na+] [NaNO2]
- effect on blood pressure (in words) [2]: no effect on blood pressure

Structure (SMILES): CC(=O)N[C@@H](CSN=O)C(=O)O [S-nitroso-N-acetyl cysteine]
- inhibition of platelet aggregation (in words) (platelet aggregation): extremely potent inhibitor of platelet aggregation

Structure (SMILES): NC(CSN=O)C(=O)O (stereo not drawn) [S-nitrosothiol of cysteine]
- activation of guanylate cyclase in arterial smooth muscle (in words) [4]: potent activators of guanylate cyclase
- activation of soluble guanylate cyclase (in words) [5]: capable of activating soluble guanylate cyclase

Structure (SMILES): N[C@@H](CCC(=O)N[C@@H](CSN=O)C(=O)NCC(=O)O)C(=O)O [S-nitrosothiol of glutathione]
- activation of guanylate cyclase in arterial smooth muscle (in words) [4]: potent activators of guanylate cyclase
- activation of soluble guanylate cyclase (in words) [5]: capable of activating soluble guanylate cyclase

Structure (SMILES): CC(C)(SN=O)C(N)C(=O)O (stereo not drawn) [S-nitrosothiol of penicillamine]
- activation of guanylate cyclase in arterial smooth muscle (in words) [4]: potent activators of guanylate cyclase
- activation of soluble guanylate cyclase (in words) [5]: capable of activating soluble guanylate cyclase

Structure (SMILES): NC(N)=NCCC[C@H](NC(=O)[C@H](Cc1ccccc1)NC(=O)[C@@H]1CCCN1C(=O)[C@H](CO)NC(=O)[C@H](Cc1ccccc1)NC(=O)CNC(=O)[C@@H]1CCCN1C(=O)[C@@H]1CCCN1C(=O)[C@@H](N)CCCN=C(N)N)C(=O)O [bradykinin] (H-RPPGFSPFR-OH)
- response to bradykinin at higher concentrations (in words) ([3]; norepinephrine-contracted, higher concentrations): increase in tension which was not affected by removal of the endothelium
- response to bradykinin at lower concentrations (in words) ([3]; norepinephrine-contracted, lower concentrations): relaxations that were abolished by removal of the endothelium

Structure (SMILES): CN(C)c1ccc2nc3ccc(=[N+](C)C)cc-3sc2c1 [methylene blue]
- effect of methylene blue on relaxations to S-nitrosocaptopril, femoral artery (in words) (bovine femoral artery; methylene blue 10^-5 M, FIG. 4): significantly less than control (p<0.05)
- effect of methylene blue on relaxations to S-nitrosocaptopril, coronary artery (in words) (bovine coronary artery): significantly less than control (p<0.05); also recorded: inhibited
